# Experimental data reported in ChEMBL document CHEMBL1201862, “PubChem BioAssay data set” (2004).
# Activity calls are given as the source filed them.
# How the values were obtained:
# CAAX prenyl protease 2 = CAAX prenyl protease 2 (Saccharomyces cerevisiae S288c, UniProt Q03530); type: biochemical
# [1] = target: T1, Type-1 angiotensin II receptor (Homo sapiens, UniProt P30556); experiment: AT1 receptor agonists, dose response, selectivity assay for APJ receptor agonist project, cell-based, uHTS hits (AID 488865); type: functional;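 note: beta-arrestin recruitment to AT1 measured by enzyme fragment complementation luminescence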
# T1 sequence (P30556 whole entry): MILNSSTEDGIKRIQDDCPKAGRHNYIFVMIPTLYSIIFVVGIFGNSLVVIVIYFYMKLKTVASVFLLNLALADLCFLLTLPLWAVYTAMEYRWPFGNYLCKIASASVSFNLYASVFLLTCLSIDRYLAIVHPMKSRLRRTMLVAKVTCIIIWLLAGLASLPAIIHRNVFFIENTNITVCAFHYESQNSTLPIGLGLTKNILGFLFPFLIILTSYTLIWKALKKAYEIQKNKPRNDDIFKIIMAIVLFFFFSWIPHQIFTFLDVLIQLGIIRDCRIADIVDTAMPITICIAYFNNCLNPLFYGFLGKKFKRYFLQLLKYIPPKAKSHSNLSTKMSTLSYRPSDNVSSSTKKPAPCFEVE
# Protein Tat = target: T2, Protein Tat (Human immunodeficiency virus type 1 group M subtype B (isolate HXB2)(HIV-1), UniProt P04608); type: functional;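 note: tat binding to TAR RNA read out by fluorescence polarization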
# T2 sequence (P04608 whole entry): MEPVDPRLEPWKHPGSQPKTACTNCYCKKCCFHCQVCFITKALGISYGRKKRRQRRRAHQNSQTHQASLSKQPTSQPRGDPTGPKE
# [2] = target: Eukaryotic translation initiation factor 4H (Homo sapiens, UniProt Q15056); experiment: eIF4H inhibition in translation initiation, SAR follow-up (AID 435011); type: functional
# [3] = target: Polyadenylate-binding protein 1 (Homo sapiens, UniProt P11940); experiment: PABP inhibition in translation initiation, SAR follow-up (AID 435018); type: functional
# Polyadenylate-binding protein 1, sequence (P11940 whole entry): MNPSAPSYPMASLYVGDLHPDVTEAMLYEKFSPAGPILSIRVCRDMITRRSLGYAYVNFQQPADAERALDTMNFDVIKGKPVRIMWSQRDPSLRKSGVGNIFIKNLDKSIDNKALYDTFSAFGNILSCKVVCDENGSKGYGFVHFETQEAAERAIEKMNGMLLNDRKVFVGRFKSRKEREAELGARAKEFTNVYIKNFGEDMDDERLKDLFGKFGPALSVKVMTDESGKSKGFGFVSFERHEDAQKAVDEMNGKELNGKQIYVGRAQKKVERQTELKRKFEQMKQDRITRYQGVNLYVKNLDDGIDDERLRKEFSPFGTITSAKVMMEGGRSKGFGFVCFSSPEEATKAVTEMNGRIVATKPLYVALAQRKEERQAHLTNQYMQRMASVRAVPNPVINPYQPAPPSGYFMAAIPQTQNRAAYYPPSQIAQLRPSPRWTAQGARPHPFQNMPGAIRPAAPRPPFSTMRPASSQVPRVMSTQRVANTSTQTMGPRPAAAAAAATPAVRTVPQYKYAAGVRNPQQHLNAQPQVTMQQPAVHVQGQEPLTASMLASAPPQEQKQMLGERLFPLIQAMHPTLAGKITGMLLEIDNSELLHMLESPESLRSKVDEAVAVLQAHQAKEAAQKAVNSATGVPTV
# [4] = target: DNA dC->dU-editing enzyme APOBEC-3G (Homo sapiens, UniProt Q9HC16); type: functional;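 note: Dose-response counterscreen measuring inhibition of APOBEC3G DNA deaminase activity, run while confirming APOBEC3A inhibitors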
# DNA dC->dU-editing enzyme APOBEC-3G, sequence (Q9HC16 whole entry): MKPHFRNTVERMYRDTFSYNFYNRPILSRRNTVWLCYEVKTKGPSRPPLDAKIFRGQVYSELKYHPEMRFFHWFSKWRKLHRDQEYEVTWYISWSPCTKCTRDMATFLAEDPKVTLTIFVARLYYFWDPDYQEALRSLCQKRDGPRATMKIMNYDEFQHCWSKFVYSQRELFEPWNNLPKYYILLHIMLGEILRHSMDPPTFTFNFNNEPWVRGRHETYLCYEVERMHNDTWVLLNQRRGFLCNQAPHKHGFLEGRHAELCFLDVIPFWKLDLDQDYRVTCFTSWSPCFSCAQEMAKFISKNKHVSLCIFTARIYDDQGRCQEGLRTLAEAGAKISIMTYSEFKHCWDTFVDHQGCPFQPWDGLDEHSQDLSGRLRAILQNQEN
# [5] = target: DNA dC->dU-editing enzyme APOBEC-3A (Homo sapiens, UniProt P31941); experiment: Dose Response confirmation of small molecule APOBEC3A DNA Deaminase Inhibitors via a fluorescence-based single-stranded DNA deaminase assay. [Related pubchem assays (depositor defined):AID493011, AID493024]; type: functional
# DNA dC->dU-editing enzyme APOBEC-3A, sequence (P31941 whole entry): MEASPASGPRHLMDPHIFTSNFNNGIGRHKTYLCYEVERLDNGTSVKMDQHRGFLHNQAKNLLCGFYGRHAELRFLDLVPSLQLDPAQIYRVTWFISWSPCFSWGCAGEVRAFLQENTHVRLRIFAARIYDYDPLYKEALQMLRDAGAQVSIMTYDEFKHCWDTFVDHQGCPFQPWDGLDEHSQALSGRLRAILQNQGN
# CAAX prenyl protease 2, sequence (Q03530 whole entry, the tested form may be a part): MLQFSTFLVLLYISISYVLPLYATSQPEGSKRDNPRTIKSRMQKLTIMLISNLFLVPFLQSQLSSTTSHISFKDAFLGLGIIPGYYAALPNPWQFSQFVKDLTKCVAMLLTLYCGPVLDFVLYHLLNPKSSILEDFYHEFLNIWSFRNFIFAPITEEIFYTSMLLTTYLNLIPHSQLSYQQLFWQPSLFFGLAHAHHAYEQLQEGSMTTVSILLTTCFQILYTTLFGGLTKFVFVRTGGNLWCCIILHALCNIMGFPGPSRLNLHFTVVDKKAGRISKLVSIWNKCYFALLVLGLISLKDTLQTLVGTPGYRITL
structure (smiles),measurement,setting,value
O=C(c1cnc(Cl)c(Cl)c1)N1CCC(Cc2ccccc2)CC1,AC50,CAAX prenyl protease 2,18.2 µM (active)
COc1ccc2[nH]c(=O)c(CN(Cc3ccco3)C(c3nnnn3Cc3ccccc3)C(C)C)cc2c1 (configuration not stated),EC50,[1],> 100 µM (inactive)
same,IC50,Protein Tat,> 100 µM (active)
CCN1C(=O)CC(C(=O)Nc2ccc(F)cc2)S/C1=N\c1ccccc1OC (configuration not stated),IC50,[2],> 100 µM (inactive)
same,IC50,[3],> 100 µM (inactive)
Cc1n(Cc2ccccc2)c2ccc(Cl)cc2[n+]1C,IC50,[4],4.75 µM (active)
same,IC50,[5],2.46 µM (active)
